In US7557101B2, “4,5,6,7-tetrahydro-thieno[3,2-c] pyridine derivatives” (Hoffman-La Roche Inc., priority 2006, dated 2009) one finds Ki data, which are given here for five molecules.

The assay has as its target T1, human H3R (Homo sapiens, UniProt Q9Y5N1).
T1 construct: expressed in transfected cells; host or cells: CHO cells
In words: Competition binding assay with 3H-(R)α-methylhistamine on membranes of the human H3R-CHO cell line. The conditions noted are these: competition with 3H(R)α-methylhistamine (1 nM), Ki calculated from IC50 by Cheng-Prusoff. Here is the method:
Binding Assay with ^3H—(R)α-methylhistamine
Saturation binding experiments were performed using HR3-(CHO membranes prepared as described in Takahashi, K, Tokita, S., Kotani, H. (2003) J. Pharmacol. Exp. Therapeutics 307, 213-218.
An appropriate amount of membrane (60 to 80 μg protein/well) was incubated with increasing concentrations of ^3H(R)α-Methylhistamine di-hydrochloride (0.10 to 10 nM). Non specific binding was determined using a 200 fold excess of cold (R)α-Methylhistamine dihydrobromide (500 nM final concentration). The incubation was carried out at room temperature (in deep-well plates shaking for three hours). The final volume in each well was 250 μl. The incubation was followed by rapid filtration on GF/B filters (pre-soaked with 100 μl of 0.5% PEI in Tris 50 mM shaking at 200 rpm for two hours). The filtration was made using a cell-harvester and the filter plates were then washed five times with ice cold washing buffer containing 0.5 M NaCl. After harvesting, the plates were dried at 55° C. for 60 min, then we added scintillation fluid (Microscint 40, 40 microl in each well) and the amount of radioactivity on the filter was determined in Packard top-counter after shaking the plates for two hours at 200 rpm at room temperature.
Binding Buffer: 50 mM Tris-HCl pH 7.4 and 5 mM MgCl2×6H2O pH 7.4. Washing Buffer: 50 mM Tris-HCl pH 7.4 and 5 mM MgCl2×6H2O and 0.5 M NaCl pH 7.4.
Indirect measurement of affinity of H3R inverse agonists: twelve increasing concentrations (ranging from 10 μM to 0.3 nM) of the selected compounds were always tested in competition binding experiments using membrane of the human H3R—CHO cell line. An appropriate amount of protein, e.g. approximately 500 cpm binding of RAMH at Kd, were incubated for 1 hour at room temperature in 250 μl final volume in 96-well plates in presence of ^3H(R)α-methylhistamine (1 nM final concentration=Kd). Non-specific binding was determined using a 200 fold excess of cold (R)α-methylhistamine dihydrobromide.
All compounds were tested at a single concentration in duplicate. […] The concentration at which 50% inhibition of the radioligand ^3H(R)α-methylhistamine is obtained (the IC50) is determined from the linear regression of a plot of the logarithm of the concentration versus percent inhibition measured for the different concentrations. Ki's were calculated from IC50 based on Cheng-Prusoff equation (Cheng, Y, Prusoff, W H (1973) Biochem Pharmacol 22, 3099-3108): Ki=IC50/[1+D/Kd] wherein D is the concentration of the radioligand and Kd is the binding constant for the radioligand binding to the receptor under the conditions used in the competition experiment.

T1 sequence (Q9Y5N1 whole entry): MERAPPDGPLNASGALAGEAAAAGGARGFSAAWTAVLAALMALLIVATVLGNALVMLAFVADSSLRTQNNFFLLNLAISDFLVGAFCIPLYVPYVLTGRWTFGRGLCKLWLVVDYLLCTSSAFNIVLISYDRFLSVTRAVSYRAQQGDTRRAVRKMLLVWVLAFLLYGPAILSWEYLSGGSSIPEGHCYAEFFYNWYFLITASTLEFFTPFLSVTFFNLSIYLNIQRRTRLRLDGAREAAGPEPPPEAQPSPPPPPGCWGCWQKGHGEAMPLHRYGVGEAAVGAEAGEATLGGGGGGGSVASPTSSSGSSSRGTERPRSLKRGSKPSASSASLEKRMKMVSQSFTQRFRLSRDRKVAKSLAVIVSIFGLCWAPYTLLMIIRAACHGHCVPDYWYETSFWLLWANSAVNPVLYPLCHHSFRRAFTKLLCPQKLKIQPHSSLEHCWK

The term Ki denotes a dissociation constant, usually derived from enzyme kinetics or from competition with a known ligand. For the molecule `O=C(N1CCOCC1)N1CCc2sc(OCCCN3CCCCC3)cc2C1` [Example 1, Morpholin-4-yl-[2-(3-piperidin-1-yl-propoxy)-6,7-dihydro-4H-thieno[3,2-c]pyridin-5-yl]-methanone], the Ki was 35.7 nM.

As to `Cc1ccccc1S(=O)(=O)N1CCc2sc(OCCCN3CCCC3)cc2C1` [Example 56, 2-(3-pyrrolidin-1-yl-propoxy)-5-(toluene-2-sulfonyl)-4,5,6,7-tetrahydro-thieno[3,2-c]pyridine], the Ki was 27.3 nM.

In the case of `CCCC(=O)N1CCc2sc(OCCCN3CCCCC3)cc2C1` [Example 33, 1-[2-(3-piperidin-1-yl-propoxy)-6,7-dihydro-4H-thieno[3,2-c]pyridin-5-yl]-butan-1-one], the Ki is 44.4 nM.

As to `CC1CCC(CC(=O)N2CCc3sc(OC4CCN(C(C)C)C4)cc3C2)CC1` (centres unmarked) [Example 90, 1-[2-(1-isopropyl-pyrrolidin-3-yloxy)-6,7-dihydro-4H-thieno[3,2-c]pyridin-5-yl]-2-(4-methyl-cyclohexyl)-ethanone], the Ki was 21.7 nM.

Turning to `O=C(NCc1ccccc1)N1CCc2sc(OCCCN3CCCC3)cc2C1` [Example 48, 2-(3-pyrrolidin-1-yl-propoxy)-6,7-dihydro-4H-thieno[3,2-c]pyridine-5-carboxylic acid benzylamide], the inhibition constant Ki was 31.7 nM.
